Data reported in publication PMC12593965, “Determination of Retention Behavior and pK a Values of Some Phenothiazines with Green Chemistry Approach” (ACS Omega, 2025).
Read-outs that look alike come from different tables or passages of the source.

Assays:
[1] = Aqueous pKa (wwpKa) calculated from sspKa via X solvent - sspKa and 1/ε - sspKa linear relationships; assay type: physicochemical; conditions: for wwpKa, 1/εACN - sspKa approach / wwpKa, X ACN - sspKa approach: from ACN-water data; for wwpKa, 1/εEtOH - sspKa approach / wwpKa, X EtOH - sspKa approach: from EtOH-water data
Description: The w ^wpK a values of promethazine, promazine, and trimeprazine in a water medium were determined by evaluating the obtained s ^spK a values of the compounds with the X solvent – s ^spK a , and the reciprocal of the solvent’s dielectric constant (1/ε) – s ^spK a relationships.
In this study, the w ^wpK a values of the examined compounds were determined based on the mole fraction of solvent-s ^spK a (X solvent – s ^spK a) and 1/εsolvent – s ^spK a approaches. In the calculation using the solvent mole fraction, the intercept values of the equation obtained from the linear relationship between the organic solvent X solvent and s ^spK a give the w ^wpK a values of the compounds examined.
To confirm the computed w ^wpK a values, an alternative approach was employed. Within the scope of the study, the correlation between the inverse of the dielectric constant value of the organic solvent (1/ε) and the s ^spK a values of the compounds was utilized. Since the ε values depend on the temperature, these values were taken from Gagliardi et al. and Navarkhele and Navarkhele for the two temperatures under study. , In the obtained linear equations, ε values in the water environment were used for increasing temperatures, and w ^wpK a values for the compounds could be determined. There was a decrease in the dielectric constant with the decrease in solvent polarity.
Figure illustrates the linear relationship between the solvent’s macroscopic constant X solvent and s ^spK a values.

[2] = RPLC determination of sspKa in EtOH-water binary mixtures (green RPLC); assay type: physicochemical; conditions: standard deviation in parentheses
Description: (§1) The analysis of the compounds on the HPLC column was determined in binary mixtures of ACN–water and EtOH–water containing 50, 55, and 60% (v/v) organic solvents at varying pH values (5.5–11.5). Buffer compounds containing 30 mM o-H3PO4 and NH4Cl at the same concentration were used in the mobile phases according to the pH values at which the buffers were effective.
(§2) The pH value of the mobile phase was adjusted by adding a 1 M NaOH solution to the mobile phase containing o-H3PO4 and by adding concentrated NH3 solution to the mobile phase containing ammonium chloride. The pH values of the binary mixtures in this mobile phase were evaluated according to the International Union of Pure and Applied Chemistry (IUPAC) guideline, taking into account the reference pH values obtained from the National Institute of Standards and Technology (NIST). − KHP (0.05 mol/kg) was used as a reference standard for electrode calibration in hydroorganic mixtures. The pH value (pHx) of this hydroorganic mixture can be determined by eq . pHx=pHs+Es−Ex/(ln10)RT/F 1
(§3) Solutions of the investigated compounds in binary mixtures were prepared daily. Standard solutions at 100 μg/mL concentrations were prepared in the studied mobile phase. Fresh solutions were prepared daily and stored at +4 °C in the dark until analysis. For testing, a 20 μL sample was injected three times into the HPLC instrument. The average t R was calculated from these replicates, showing precision with a relative standard deviation (%RSD) of approximately 0.01.
(§4) This liquid chromatographic study was performed at 25 and 37 °C. Chromatographic determination of the compounds was performed on a Kinetex EVO C18 (Phenomenex, 150 × 4.6 mm ID, 5 μm) core–shell column at a constant flow rate of 1 mL/min. There are no data in the literature regarding the determination of the retention behavior of compounds by analysis with HPLC columns produced with the core–shell technique. Additionally, the theoretical plate number of the column being 2000 and above and the tailing factor being below 2 indicate optimum column performance and satisfactory peak symmetry.
(§5) The t R values of promethazine, promazine, and trimeprazine for the study on the HPLC column were determined by using the RPLC method at different pH values in binary mixtures. The s ^spK a values of the ionizable and molecular forms (BH^+, B) were calculated using the nonlinear regression program (NLREG).
(§6) The intrinsic t R (t RBH^+ , t RB) and s ^spK a values of the studied compounds were calculated in the NLREG program using the average t R values determined depending on the changing EtOH and ACN concentrations and pH values in the mobile phase. It is seen that the standard deviation values of the sigmoidal fitting parameters (t RBH^+ , t RB, and s ^spK a) given in Table are very small. Since good results were obtained by using the t R value directly, the k value was not used. Although the changes in s ^spK a values according to the solvent composition in the mobile phase used were different for each compound, the same type of sigmoidal behavior was obtained as in Figure . The s ^spK a of basic compounds decreases mainly due to electrostatic interactions that contribute to the pK a value. Since ACN (0.46) and EtOH (0.65) have lower relative polarity compared to water (1.00), the solute–solvent polar interaction decreases as the amount of organic solvent in the mobile phase increases. Therefore, the t R value increases as the pH value of the mobile phase increases, while the t R value decreases as the amount of organic solvents in the mobile phase increases. In the mobile phase rich in ACN (0.25 ≤ X ACN ≤ 0.33) and EtOH (0.26 ≤ X EtOH ≤ 0.35), preferential solvation with water exists, and this can explain the decrease in the s ^spK a values of the studied compounds when the amount of organic solvent in the mobile phase increases. ,

[3] = source not stated; cited from earlier work
[4] = RPLC determination of sspKa in ACN-water binary mixtures (conventional RPLC); assay type: physicochemical; conditions: standard deviation in parentheses
Description: as §1, §2, §3, §4, §5, §6

[5] = Percent ionization of the basic functional group by Henderson-Hasselbach equation; assay type: physicochemical; conditions: from wwpKa at 37 °C (EtOH-water)
Text: Drug molecules can ionize at different pH ranges, and the pK a value serves as a universal measure of ionization. […] Changing the ionic form of a drug can affect its action, absorption, and therapeutic efficacy depending on the pH of the medium. Therefore, evaluating the degree of ionization of the compounds selected in this study is crucial. Using the Henderson–Hasselbach equation, the percent ionization and pK a (at 50% ionization) of the basic functional group of each compound at different pH values were calculated (Figure S4). Since a green chemistry approach was preferred in this study, the w ^wpK a values at 37 °C, determined from data obtained from an EtOH-water binary mixture, were used in the calculation of the percentage ionization. […] At a pH value 2 pH units above the pK a, the basic compound is in its un-ionized form. It is known that the hydrophilic properties of compounds decrease as the alkyl chain length increases. According to the data in Table S2, the percentage ionization values increase as the alkyl chain length increases.

[6] = cited from earlier work

Row | wwpKa, 1/εACN - sspKa approach ([1]; 25 °C) | wwpKa, X ACN - sspKa approach ([1]; 25 °C) | wwpKa, 1/εACN - sspKa approach ([1]; 37 °C) | wwpKa, 1/εEtOH - sspKa approach ([1]; 25 °C) | wwpKa, X EtOH - sspKa approach ([1]; 25 °C) | wwpKa, 1/εEtOH - sspKa approach ([1]; 37 °C) | wwpKa, X EtOH - sspKa approach ([1]; 37 °C) | sspKa ([2]; 50% (v/v) EtOH-water, 25 °C) | sspKa ([2]; 50% (v/v) EtOH-water, 37 °C) | sspKa ([2]; 55% (v/v) EtOH-water, 25 °C) | sspKa ([2]; 55% (v/v) EtOH-water, 37 °C) | sspKa ([2]; 60% (v/v) EtOH-water, 25 °C) | sspKa ([2]; 60% (v/v) EtOH-water, 37 °C) | sspKa ([4]; 50% (v/v) ACN-water, 25 °C) | sspKa ([4]; 50% (v/v) ACN-water, 37 °C) | sspKa ([4]; 55% (v/v) ACN-water, 25 °C) | sspKa ([4]; 55% (v/v) ACN-water, 37 °C) | sspKa ([4]; 60% (v/v) ACN-water, 25 °C) | sspKa ([4]; 60% (v/v) ACN-water, 37 °C) | SMILES | logP [3] | also measured
1 | 9.980 | 10.056 | 9.924 | 9.761 | 9.821 | 9.716 | 9.787 | 9.117 (0.011) ^a | 8.926 (0.082) | 8.999 (0.008) | 8.824 (0.009) | 8.900 (0.071) | 8.666 (0.031) | 9.167 (0.064) ^a | 9.108 (0.045) | 9.007 (0.064) | 8.947 (0.097) | 8.868 (0.075) | 8.806 (0.053) | CC(CN1c2ccccc2Sc2ccccc21)N(C)C (stereo not shown) [promethazine] | 3.14 | wwpKa, X ACN - sspKa approach ([1]; 37 °C): 10.006; % Ionization value ([5]; pH 2.0): 100%; % Ionization value ([5]; pH 7.4): 99.591%; % Ionization value ([5]; pH 9.0): 85.962%; % Ionization value ([5]; pH 10.0): 37.979%; % Ionization value ([5]; pH 12.0): 0.609%
2 | 10.361 | 10.468 | 10.120 | 10.302 | 10.407 | 9.766 | 9.836 | 9.185 (0.042) | 9.048 (0.024) | 8.978 (0.008) | 8.914 (0.053) | 8.808 (0.042) | 8.805 (0.066) | 9.265 (0.088) | 9.195 (0.036) | 9.096 (0.012) | 9.042 (0.082) | 8.867 (0.009) | 8.857 (0.082) | CN(C)CCCN1c2ccccc2Sc2ccccc21 [promazine] | 3.75 | wwpKa, X ACN - sspKa approach ([1]; 37 °C): 10.213; pKa, literature values ([6]; 37 °C): 9.11 ± 0.03; % Ionization value ([5]; pH 2.0): 100%; % Ionization value ([5]; pH 7.4): 99.635%; % Ionization value ([5]; pH 9.0): 87.269%; % Ionization value ([5]; pH 10.0): 40.670%; % Ionization value ([5]; pH 12.0): 0.681%
3 | 10.134 | 10.268 | 10.112 | 10.049 | 10.110 | 9.968 | 10.027 | 9.388 (0.012) | 9.329 (0.034) | 9.278 (0.016) | 9.243 (0.091) | 9.167 (0.034) | 9.118 (0.045) | 9.643 (0.078) | 9.470 (0.073) | 9.527 (0.038) | 9.329 (0.050) | 9.425 (0.062) | 9.202 (0.047) | CC(CN(C)C)CN1c2ccccc2Sc2ccccc21 (stereo not shown) [trimeprazine] | 4.11 | pKa, literature values ([6]; 25 °C, different methods (CE, potentiometry, UV-Vis)): 10.12; % Ionization value ([5]; pH 2.0): 100%; % Ionization value ([5]; pH 7.4): 99.765%; % Ionization value ([5]; pH 9.0): 91.410%; % Ionization value ([5]; pH 10.0): 51.554%; % Ionization value ([5]; pH 12.0): 1.053%
